Laboratory results from ChEMBL document CHEMBL1153243, “Structure and property based design of factor Xa inhibitors: pyrrolidin-2-ones with monoaryl P4 motifs” (Bioorg Med Chem Lett, 2010).

Columns and labels:
Assay type in all cases: ADME, organism-based
[1] = Half life in Sprague-Dawley rat; details: in vivo
[2] = Volume of distribution at steady state in Sprague-Dawley rat; details: in vivo, read-out: Vdss
[3] = Plasma clearance in Sprague-Dawley rat
[4] = Oral bioavailability in Sprague-Dawley rat; details: in vivo

Row | Structure (SMILES) | half-life [1] [h] | Vd [2] [L/kg] | clearance [3] [mL/min/kg] | bioavailability [4] [%]
1 | C[C@H](c1ccc(N2CC[C@H](NS(=O)(=O)c3ccc4cc(Cl)ccc4c3)C2=O)c(F)c1)N(C)C | 2.6 | 1.3 | 8 | 43
2 | C[C@@H](c1ccc(N2CC[C@H](NS(=O)(=O)c3ccc4cc(Cl)ccc4c3)C2=O)c(F)c1)N(C)C | 2.1 | 1.8 | 13 | 81
3 | CC(c1ccc(N2CC[C@H](NS(=O)(=O)c3cc4ccc(Cl)cc4s3)C2=O)c(F)c1)N(C)C (stereo partly drawn) | 3.1 | 0.52 | 2.1 | 10

Second part, the compound after the results:

Row | half-life [1] [h] | Vd [2] [L/kg] | clearance [3] [mL/min/kg] | bioavailability [4] [%] | Structure (SMILES)
4 | 1.3 | 0.66 | 7.5 | 54 | C[C@H](c1ccc(N2CC[C@H](NS(=O)(=O)/C=C/c3ccc(Cl)s3)C2=O)c(F)c1)N(C)C
5 | 18 | 2.4 | 1.6 | > 10 | CN[C@H](C)c1ccc(N2CC[C@H](NS(=O)(=O)c3ccc4cc(Cl)ccc4c3)C2=O)c(F)c1
6 | 1.6 | 0.53 | 4.3 | 23 | C[C@@H](c1ccc(N2CC[C@H](NS(=O)(=O)/C=C/c3ccc(Cl)s3)C2=O)c(F)c1)N(C)C
7 | 15 | 3.3 | 3.1 | > 15 | CN[C@@H](C)c1ccc(N2CC[C@H](NS(=O)(=O)c3ccc4cc(Cl)ccc4c3)C2=O)c(F)c1
